Assay [1] concerns Clostridium tyrobutyricum. As to the kind of experiment: Serum bottle batch fermentation of Clostridium tyrobutyricum on fructose, optical density. It is filed as cell-based. The settings on record: for O.D. Response: 5 mM, duplicates A and B. The procedure:
Ethyl 3-(trifluoromethyl)benzoate is evaluated in a series of batch fermentations to determine the growth response of butyrogens to the presence of this compound at varying concentrations. The batch fermentations are conducted by anoxically filling 100 mL serum bottles with 15 mL of media having the composition given in Tables 12 and 13. About 0.15 mL of a 50% w/w solution of fructose in water (final fructose concentration about 5 g/L) is provided in the bottles. Duplicate runs are conducted for each concentration.
(§1) Each bottle is inoculated with 1.5 mL of seed culture inoculum of the strict butyrogen Clostridium tyrobutyricum, which has an OD of about 0.40 (which upon a 10 times dilution provides a starting OD for the fermentation of about 0.04). The bottles are maintained at a temperature of 37° C. Two hours after inoculation of the bottles with the bacteria, the compound is added to different bottles as a solution in 50 μL of N-methylpyrrolidone in the amounts indicated in Table 15. The fermentation process is allowed to progress at 37° C. At selected intervals of time, bacterial growth is measured by reading the optical density (OD) of the fermentation liquid. Optical density is measured by anoxically removing an aliquot of fermentation liquid and adding it to a disposable cuvette. OD's ranging between 0.01 and 0.4 are measured directly, while OD's greater than 0.4 are measure after performing a 1/10 dilution with water.
In this example ethyl 4,4,4-trifluoro-3-(trifluoromethyl)crotonate and ethyl 3-trifluoromethyl-4-methoxybenzoate are evaluated by batch fermentation. The batch fermentations are conducted by anoxically filling 100 mL serum bottles with 15 mL of media having the composition given in Tables 12 and 13. About 0.15 mL of a 50% w/w solution of fructose in water (final fructose concentration about 5 g/L) is provided in the bottles. Duplicate runs are conducted for each concentration.
as §1, with “of about 0.42 (which upon” for “of about 0.40 (which upon”, “of about 0.042). The bottles” for “of about 0.04). The bottles”, “in Table 16 and 17. The fermentation” for “in Table 15. The fermentation”, “0.4 are measured after performing” for “0.4 are measure after performing”

For a further assay, the system named is C. coskatii. As to the kind of experiment: Balch tube batch growth of homoacetogen C. coskatii on fructose, optical density. The class given is cell-based. The settings on record: added 21 h after inoculation. On the procedure: Compounds A and D were again tested to determine their effect on another known homoacetogen. Each compound was tested in a series of batch experiments to determine the growth response of the homoacetogen to the presence of the compound at varying concentrations. These batch experiments were again all conducted by anoxically filling a Balch tube with 5 ml of a fermentation medium having the composition given in Tables 2 and 3. To expedite results, these batch experiments used fructose as the growth nutrient source for bacteria. Thus, the media included 5 g/L of fructose.
Each tube was inoculated with 0.5 ml of the same strain of C. coskatii bacteria seed culture inoculum. The tubes were maintained at a temperature of 37° C. Twenty one hours after the inoculation of the tube with the bacteria, the different crotonate derivatives from Table 1 were added to different tubes in the amounts indicated in Table 5. This was at a time of early to mid-log phase growth for the bacteria. Each fermentation of the bacteria in the media at the different concentration of crotonate derivatives were allowed to progress and were monitored to determine the bacteria growth at selected intervals of time varying from approximately 20 hours to 50 hours. Growth at the intervals was determined by measurement of the OD in the manner described in Example 1. The ability of a tube fermentation at a particular concentration of crotonate derivative to reach a predetermined optical density was recorded in Table 5. Table 5 indicates the presence of bacterial growth to an OD of approximately 1.6 or above with a “+”. All the samples of C. Coskatii reached a relatively high OD after a time of only 50 hours.

“And” between values parts separate entries of the source, which are not always exact repeats. Equal entries are not always repeated.

Consider `CCOC(=O)/C=C(\N)C(F)(F)F` [B, ethyl-3-amino-4,4,4-trifluorocrotonate], for which the “O.D. Response to Varying Inhibitor Concentrations” value came out at 0.84 in assay [1] (100 ppm, 22.5 Hours, added 25 h after inoculation); 1.48 in assay [1] (100 ppm, 28.5 Hours); 1.53 in assay [1] (100 ppm, 43.5 Hours); 0.86 in assay [1] (250 ppm, 22.5 Hours, added 25 h after inoculation); 1.87 in assay [1] (250 ppm, 28.5 Hours); 1.92 in assay [1] (250 ppm, 43.5 Hours). The “O.D. Response to Varying Inhibitor Concentrations” value in assay [1] (500 ppm, 22.5 Hours, added 25 h after inoculation) came to 0.80; in assay [1] (500 ppm, 28.5 Hours), 0.93; in assay [1] (500 ppm, 43.5 Hours), 1.00; in assay [1] (1000 ppm, 22.5 Hours, added 25 h after inoculation) it was 0.70; in assay [1] (1000 ppm, 28.5 Hours), 0.77; in assay [1] (1000 ppm, 43.5 Hours) it was 0.78.
Consider `CCOC(=O)C=C(C(F)(F)F)C(F)(F)F` [Compound A, ethyl 4,4,4-trifluoro-3-(trifluoromethyl)crotonate], for which the “O.D. Response” value was 0.42 in assay [1] (0 Hours, added 2 h after inoculation); 0.10 in assay [1] (2 Hours, added 2 h after inoculation); 0.14 and 0.11 in assay [1] (4.5 Hours); 0.13 in assay [1] (6 Hours); 0.12 in assay [1] (24 Hours). For the same compound, the “Optical density valuation of C. coskatii” value with C. coskatii (100 ppm(m)), in the assay on C. coskatii (500 ppm(m)) and in the assay with C. coskatii (1000 ppm(m)) was “+ (bacterial growth to an OD of approximately 1.6 or above)” throughout.
In the case of `O=C(O)C=C(C(F)(F)F)C(F)(F)F` [D, 4,4,4-trifluoro-3-(trifluoromethyl)crotonic acid], the “Optical density valuation of C. coskatii” value in the assay on C. coskatii (100 ppm(m)), in the assay with C. coskatii (500 ppm(m)) and in the assay with C. coskatii (1000 ppm(m)) was “+ (bacterial growth to an OD of approximately 1.6 or above)” throughout.

The values above are taken from patent publication US20130071897A1, “METHOD FOR CONTROLLING UNDESIRABLE BYPRODUCTS FORMATION CAUSED BY CONTAMINATING ORGANISMS IN THE PRODUCTION OF ETHANOL FROM SYNGAS” (COSKATA, INC., priority 2011, published 2013).
